Data: ChEMBL document CHEMBL4334435, “A focused structure-activity relationship study of psoralen-based immunoproteasome inhibitors” (Medchemcomm, 2019)
Active and inactive are the calls of the source. The calls are words filed in the database; no cut-off is given here.

Assays:
[1] = system: PBMC; assay: Inhibition of LPS-induced IL-1beta production in human PBMC at 50 nM preincubated for 1 hr followed by LPS addition and measured after 24 hrs by cytometric bead array-based FACS analysis; assay type: functional, cell-based
[2] = system: PBMC; assay: Inhibition of LPS-induced IL-8 production in human PBMC at 50 nM preincubated for 1 hr followed by LPS addition and measured after 24 hrs by cytometric bead array-based FACS analysis; assay type: functional, cell-based
[3] = system: PBMC; assay: Inhibition of LPS-induced TNFalpha production in human PBMC at 50 nM preincubated for 1 hr followed by LPS addition and measured after 24 hrs by cytometric bead array-based FACS analysis; assay type: functional, cell-based
[4] = system: PBMC; assay: Inhibition of LPS-induced IL-6 secretion in human PBMC at 50 nM preincubated for 1 hr followed by LPS addition and measured after 24 hrs by cytometric bead array-based FACS analysis; assay type: functional, cell-based
[5] = molecular target: T1, Proteasome subunit beta type-8 (Homo sapiens) (UniProt P28062); assay: Reversible inhibition of human immunoproteasome beta 5i subunit assessed as recovery of enzyme activity at 45 nM using Suc-LLVY-AMC as substrate preincubated for 30 mins followed by 100-fold diluted substrate addition by rapid dilution assay relative to control; set-up: scale not given: the % may be the effect or the level left
T1 sequence (whole entry): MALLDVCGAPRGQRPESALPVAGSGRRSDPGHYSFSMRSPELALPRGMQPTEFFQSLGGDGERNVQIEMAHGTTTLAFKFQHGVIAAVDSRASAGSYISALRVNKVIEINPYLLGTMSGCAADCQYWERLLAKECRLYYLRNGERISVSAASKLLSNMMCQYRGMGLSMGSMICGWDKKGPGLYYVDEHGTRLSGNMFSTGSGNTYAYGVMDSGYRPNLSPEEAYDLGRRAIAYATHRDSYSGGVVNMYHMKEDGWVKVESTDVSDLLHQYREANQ

[6] = system: PBMC; assay: Inhibition of LPS-induced IL-12p70 production in human PBMC at 50 nM preincubated for 1 hr followed by LPS addition and measured after 24 hrs by cytometric bead array-based FACS analysis; assay type: functional, cell-based
[7] = system: PBMC; assay: Inhibition of LPS-induced IL-10 secretion in human PBMC at 50 nM preincubated for 1 hr followed by LPS addition and measured after 24 hrs by cytometric bead array-based FACS analysis; assay type: functional, cell-based

CC(C)(C)ONC(=O)C[C@H](NC(=O)CCc1ccccc1)C(=O)N[C@@H](Cc1ccc(F)cc1)C(=O)NCc1cccc2ccccc12
inhibition [1]: inactive
inhibition [2]: inactive
inhibition [3]: inactive
inhibition [4]: Active
Activity [5]: 100%
inhibition [6]: inactive
inhibition [7]: Active
